Measurements as given in the kinase profiling compilation of Christmann-Franck et al. (2016).

Key:
Assay in all cases: radiometric filter-binding kinase assay, Kinase HotSpot
Conditions in all cases: compound 0.5 µM; ATP 10 µM
MAP2K1 (human) = MAP2K1 (human) (UniProt Q02750)
DYRK1A (human) = DYRK1A (human) (UniProt Q13627)
SRPK1 (human) = SRPK1 (human) (UniProt Q96SB4)
CLK1 (human) = CLK1 (human) (UniProt P49759)
RPS6KA4 KD2 (human) = RPS6KA4 KD2 (human) (UniProt O75676)
ERBB2 (human) = ERBB2 (human) (UniProt P04626)
CLK2 (human) = CLK2 (human) (UniProt P49760)
ERBB4 (human) = ERBB4 (human) (UniProt Q15303)
VRK1 (human) = VRK1 (human) (UniProt Q99986)
CHUK (human) = CHUK (human) (UniProt O15111)
TTK (human) = TTK (human) (UniProt P33981)
PAK2 (human) = PAK2 (human) (UniProt Q13177)
PAK2 (human), sequence (Q13177 whole entry, looked up): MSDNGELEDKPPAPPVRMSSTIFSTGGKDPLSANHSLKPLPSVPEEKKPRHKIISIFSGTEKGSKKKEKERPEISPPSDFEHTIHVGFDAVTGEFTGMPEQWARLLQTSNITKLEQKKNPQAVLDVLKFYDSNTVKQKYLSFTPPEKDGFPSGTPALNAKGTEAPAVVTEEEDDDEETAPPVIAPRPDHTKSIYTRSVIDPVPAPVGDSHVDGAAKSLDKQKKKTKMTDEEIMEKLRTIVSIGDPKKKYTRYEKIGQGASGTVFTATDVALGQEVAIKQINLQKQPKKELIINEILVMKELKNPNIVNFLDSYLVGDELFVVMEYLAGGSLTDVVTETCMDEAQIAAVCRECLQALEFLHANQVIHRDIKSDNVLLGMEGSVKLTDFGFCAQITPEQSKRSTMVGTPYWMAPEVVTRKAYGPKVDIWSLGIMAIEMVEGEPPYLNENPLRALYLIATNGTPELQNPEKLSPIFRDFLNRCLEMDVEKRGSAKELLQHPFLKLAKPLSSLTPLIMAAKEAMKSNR

MLTK (human) = MLTK (human) (UniProt Q9NYL2)
STK39 (human) = STK39 (human) (UniProt Q9UEW8)
PDPK1 (human) = PDPK1 (human) (UniProt O15530)
PDPK1 (human), sequence (O15530 whole entry, looked up): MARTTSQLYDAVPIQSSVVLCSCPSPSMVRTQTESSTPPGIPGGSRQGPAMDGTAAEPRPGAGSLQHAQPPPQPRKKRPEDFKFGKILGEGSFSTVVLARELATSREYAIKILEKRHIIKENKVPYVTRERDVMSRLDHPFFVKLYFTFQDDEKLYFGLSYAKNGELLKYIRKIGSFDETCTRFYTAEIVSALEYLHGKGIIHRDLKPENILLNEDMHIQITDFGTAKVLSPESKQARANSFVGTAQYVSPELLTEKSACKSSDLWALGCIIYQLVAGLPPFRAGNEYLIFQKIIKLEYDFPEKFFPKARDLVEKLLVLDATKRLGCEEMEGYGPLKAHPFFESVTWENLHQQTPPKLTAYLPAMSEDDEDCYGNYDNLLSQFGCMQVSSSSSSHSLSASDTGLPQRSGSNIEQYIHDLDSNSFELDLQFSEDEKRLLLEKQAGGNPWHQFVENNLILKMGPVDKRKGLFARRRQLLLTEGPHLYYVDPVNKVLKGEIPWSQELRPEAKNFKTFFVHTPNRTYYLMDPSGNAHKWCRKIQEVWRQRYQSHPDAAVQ

JAK3 JH1 JH2 (human) = JAK3 JH1 JH2 (human) (UniProt P52333)
DYRK4 (human) = DYRK4 (human) (UniProt Q9NR20)
DYRK4 (human), sequence (Q9NR20 whole entry, looked up): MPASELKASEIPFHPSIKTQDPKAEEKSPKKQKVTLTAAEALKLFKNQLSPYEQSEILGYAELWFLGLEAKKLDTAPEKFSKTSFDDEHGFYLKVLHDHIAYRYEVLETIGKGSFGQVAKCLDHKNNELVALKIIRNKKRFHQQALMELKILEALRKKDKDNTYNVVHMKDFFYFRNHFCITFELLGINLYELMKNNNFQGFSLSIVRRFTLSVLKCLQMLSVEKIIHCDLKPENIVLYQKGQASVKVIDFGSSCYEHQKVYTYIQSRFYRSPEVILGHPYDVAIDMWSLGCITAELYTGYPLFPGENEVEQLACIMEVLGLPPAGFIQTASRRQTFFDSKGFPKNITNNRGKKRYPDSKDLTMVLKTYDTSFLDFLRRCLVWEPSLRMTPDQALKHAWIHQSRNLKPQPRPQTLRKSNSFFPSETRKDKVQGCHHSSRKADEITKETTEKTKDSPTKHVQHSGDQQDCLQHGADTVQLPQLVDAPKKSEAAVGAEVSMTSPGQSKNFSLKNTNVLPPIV

TAOK2 (human) = TAOK2 (human) (UniProt Q9UL54)
ALK (human) = ALK (human) (UniProt Q9UM73)
HIPK1 (human) = HIPK1 (human) (UniProt Q86Z02)
EPHB2 (human) = EPHB2 (human) (UniProt P29323)
PRKD2 (human) = PRKD2 (human) (UniProt Q9BZL6)
PRKD2 (human), sequence (Q9BZL6 whole entry, looked up): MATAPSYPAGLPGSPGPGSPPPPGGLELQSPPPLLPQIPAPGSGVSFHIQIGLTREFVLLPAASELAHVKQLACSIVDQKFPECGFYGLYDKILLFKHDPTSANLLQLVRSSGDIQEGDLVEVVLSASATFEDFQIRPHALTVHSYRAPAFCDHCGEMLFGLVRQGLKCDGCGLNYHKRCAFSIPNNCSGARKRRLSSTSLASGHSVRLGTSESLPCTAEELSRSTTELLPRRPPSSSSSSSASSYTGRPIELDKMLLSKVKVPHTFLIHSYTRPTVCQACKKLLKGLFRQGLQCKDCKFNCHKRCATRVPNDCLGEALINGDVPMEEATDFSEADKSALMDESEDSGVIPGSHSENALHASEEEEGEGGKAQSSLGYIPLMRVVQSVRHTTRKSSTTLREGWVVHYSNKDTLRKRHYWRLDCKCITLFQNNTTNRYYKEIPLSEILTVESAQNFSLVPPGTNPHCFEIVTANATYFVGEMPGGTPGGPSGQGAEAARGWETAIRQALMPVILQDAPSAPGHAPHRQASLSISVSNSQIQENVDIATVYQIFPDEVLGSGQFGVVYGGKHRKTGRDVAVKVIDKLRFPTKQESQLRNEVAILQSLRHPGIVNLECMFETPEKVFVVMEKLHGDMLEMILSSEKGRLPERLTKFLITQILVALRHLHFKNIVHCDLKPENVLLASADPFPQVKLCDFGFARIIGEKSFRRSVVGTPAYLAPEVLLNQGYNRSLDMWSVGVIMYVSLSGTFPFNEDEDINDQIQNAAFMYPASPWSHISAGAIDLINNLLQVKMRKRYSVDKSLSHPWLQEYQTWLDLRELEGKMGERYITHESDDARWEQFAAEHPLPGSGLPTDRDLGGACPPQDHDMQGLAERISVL

JAK2 JH1 JH2 (human) = JAK2 JH1 JH2 (human) (UniProt O60674)
PLK2 (human) = PLK2 (human) (UniProt Q9NYY3)
MKNK2 (human) = MKNK2 (human) (UniProt Q9HBH9)
CDK4 CCND1 (human) = CDK4 CCND1 (human) (UniProt P24385+P11802)
PRKX (human) = PRKX (human) (UniProt P51817)
PRKX (human), sequence (P51817 whole entry, looked up): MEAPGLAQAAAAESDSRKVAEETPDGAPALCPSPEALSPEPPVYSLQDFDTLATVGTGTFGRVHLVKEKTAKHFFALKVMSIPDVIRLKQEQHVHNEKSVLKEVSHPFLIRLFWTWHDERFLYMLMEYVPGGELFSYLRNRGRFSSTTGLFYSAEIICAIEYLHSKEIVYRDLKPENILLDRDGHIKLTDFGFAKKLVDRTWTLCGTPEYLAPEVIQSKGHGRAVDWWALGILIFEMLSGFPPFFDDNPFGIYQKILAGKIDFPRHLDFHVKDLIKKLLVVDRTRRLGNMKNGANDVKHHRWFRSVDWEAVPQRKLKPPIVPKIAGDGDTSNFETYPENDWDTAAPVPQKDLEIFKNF

NTRK2 (human) = NTRK2 (human) (UniProt Q16620)
PAK3 (human) = PAK3 (human) (UniProt O75914)
MARK3 (human) = MARK3 (human) (UniProt P27448)
IRAK1 (human) = IRAK1 (human) (UniProt P51617)
IRAK1 (human), sequence (P51617 whole entry, looked up): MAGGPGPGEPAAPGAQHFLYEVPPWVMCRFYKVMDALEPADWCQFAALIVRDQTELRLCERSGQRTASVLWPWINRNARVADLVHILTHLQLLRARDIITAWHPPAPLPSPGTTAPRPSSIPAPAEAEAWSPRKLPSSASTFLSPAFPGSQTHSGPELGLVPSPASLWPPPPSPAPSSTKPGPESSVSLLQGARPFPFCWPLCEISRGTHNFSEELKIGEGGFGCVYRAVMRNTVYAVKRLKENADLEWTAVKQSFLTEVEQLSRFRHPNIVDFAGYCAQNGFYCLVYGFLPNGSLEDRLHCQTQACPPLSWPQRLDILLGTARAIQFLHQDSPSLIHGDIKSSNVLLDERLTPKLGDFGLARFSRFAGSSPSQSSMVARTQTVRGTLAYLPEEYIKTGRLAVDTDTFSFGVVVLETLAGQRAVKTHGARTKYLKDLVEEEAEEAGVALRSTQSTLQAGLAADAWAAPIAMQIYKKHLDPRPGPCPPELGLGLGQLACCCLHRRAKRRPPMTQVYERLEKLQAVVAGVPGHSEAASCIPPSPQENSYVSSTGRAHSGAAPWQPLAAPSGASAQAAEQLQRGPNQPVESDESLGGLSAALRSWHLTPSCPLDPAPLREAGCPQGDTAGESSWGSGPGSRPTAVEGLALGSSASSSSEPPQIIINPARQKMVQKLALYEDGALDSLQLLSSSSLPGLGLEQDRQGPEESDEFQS

TXK (human) = TXK (human) (UniProt P42681)
CLK3 (human) = CLK3 (human) (UniProt P49761)
LRRK2 (human) = LRRK2 (human) (UniProt Q5S007)
CSNK1G1 (human) = CSNK1G1 (human) (UniProt Q9HCP0)
CSNK1G1 (human), sequence (Q9HCP0 whole entry, looked up): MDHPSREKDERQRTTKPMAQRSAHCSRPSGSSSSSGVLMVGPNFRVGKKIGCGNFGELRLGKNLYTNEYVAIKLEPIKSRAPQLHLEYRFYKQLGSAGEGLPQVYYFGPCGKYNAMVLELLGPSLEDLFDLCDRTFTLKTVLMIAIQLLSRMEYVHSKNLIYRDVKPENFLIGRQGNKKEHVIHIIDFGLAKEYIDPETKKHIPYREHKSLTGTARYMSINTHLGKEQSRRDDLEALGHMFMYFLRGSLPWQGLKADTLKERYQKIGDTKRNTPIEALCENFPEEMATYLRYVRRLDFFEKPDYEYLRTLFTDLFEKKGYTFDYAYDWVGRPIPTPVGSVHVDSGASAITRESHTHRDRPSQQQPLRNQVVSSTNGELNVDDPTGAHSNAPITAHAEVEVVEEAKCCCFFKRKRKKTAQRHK

NEK4 (human) = NEK4 (human) (UniProt P51957)
MAP3K7 TAB1 (human) = MAP3K7 TAB1 (human) (UniProt O43318+Q15750)
PTK6 (human) = PTK6 (human) (UniProt Q13882)
CAMK1 (human) = CAMK1 (human) (UniProt Q14012)
MAP3K11 (human) = MAP3K11 (human) (UniProt Q16584)
MAPK1 (human) = MAPK1 (human) (UniProt P28482)
TBK1 (human) = TBK1 (human) (UniProt Q9UHD2)

RPS6KA4 KD2 (human), sequence (O75676 whole entry, looked up): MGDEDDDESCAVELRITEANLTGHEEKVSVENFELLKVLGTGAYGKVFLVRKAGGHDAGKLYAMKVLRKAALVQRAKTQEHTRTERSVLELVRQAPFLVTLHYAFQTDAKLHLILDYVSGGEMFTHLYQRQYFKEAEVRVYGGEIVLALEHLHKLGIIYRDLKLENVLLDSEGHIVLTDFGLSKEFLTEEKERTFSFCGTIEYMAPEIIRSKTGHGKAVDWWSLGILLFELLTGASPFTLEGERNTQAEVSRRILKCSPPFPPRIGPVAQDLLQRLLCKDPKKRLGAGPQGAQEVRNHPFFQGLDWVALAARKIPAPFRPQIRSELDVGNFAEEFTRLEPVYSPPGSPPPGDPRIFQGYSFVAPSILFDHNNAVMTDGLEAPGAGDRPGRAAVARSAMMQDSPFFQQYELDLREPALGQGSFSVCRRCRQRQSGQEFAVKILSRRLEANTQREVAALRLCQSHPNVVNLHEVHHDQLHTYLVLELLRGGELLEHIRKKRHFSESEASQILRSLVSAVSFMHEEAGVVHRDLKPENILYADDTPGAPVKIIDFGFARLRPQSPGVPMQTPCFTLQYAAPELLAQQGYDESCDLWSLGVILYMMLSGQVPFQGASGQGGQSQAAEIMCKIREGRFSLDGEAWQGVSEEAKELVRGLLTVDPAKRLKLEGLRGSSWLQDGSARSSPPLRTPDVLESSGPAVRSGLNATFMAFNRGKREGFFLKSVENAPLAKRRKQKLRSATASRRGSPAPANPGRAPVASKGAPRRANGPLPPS

Cc1ccc(S(=O)(=O)/C=C/C#N)cc1
residual activity (MAP2K1 (human)): 93.9%
residual activity (DYRK1A (human)): 107%
residual activity (SRPK1 (human)): 99.7%
residual activity (CLK1 (human)): 107%
residual activity (RPS6KA4 KD2 (human)): 82.8%
residual activity (ERBB2 (human)): 94.2%
residual activity (CLK2 (human)): 103%
residual activity (ERBB4 (human)): 99.7%
residual activity (VRK1 (human)): 105%
residual activity (CHUK (human)): 87.3%
residual activity (TTK (human)): 107%
residual activity (PAK2 (human)): 102%
residual activity (MLTK (human)): 94.7%
residual activity (STK39 (human)): 83.7%
residual activity (PDPK1 (human)): 102%
residual activity (JAK3 JH1 JH2 (human)): 101%
residual activity (DYRK4 (human)): 95.1%
residual activity (TAOK2 (human)): 89.7%
residual activity (ALK (human)): 103%
residual activity (HIPK1 (human)): 105%
residual activity (EPHB2 (human)): 104%
residual activity (PRKD2 (human)): 98.1%
residual activity (JAK2 JH1 JH2 (human)): 99.5%
residual activity (PLK2 (human)): 103%
residual activity (MKNK2 (human)): 119%
residual activity (CDK4 CCND1 (human)): 103%
residual activity (PRKX (human)): 102%
residual activity (NTRK2 (human)): 98.5%
residual activity (PAK3 (human)): 105%
residual activity (MARK3 (human)): 100%
residual activity (IRAK1 (human)): 103%
residual activity (TXK (human)): 103%
residual activity (CLK3 (human)): 106%
residual activity (LRRK2 (human)): 115%
residual activity (CSNK1G1 (human)): 101%
residual activity (NEK4 (human)): 94.3%
residual activity (MAP3K7 TAB1 (human)): 99.9%
residual activity (PTK6 (human)): 93.1%
residual activity (CAMK1 (human)): 98.8%
residual activity (MAP3K11 (human)): 98.2%
residual activity (MAPK1 (human)): 100%
residual activity (TBK1 (human)): 83.9%

CC#CC(=O)Nc1cc2c(Nc3ccc(F)c(Cl)c3)ncnc2cn1
residual activity (MAP2K1 (human)): 95.3%
residual activity (DYRK1A (human)): 96.4%
residual activity (SRPK1 (human)): 94.8%
residual activity (CLK1 (human)): 82.5%
residual activity (RPS6KA4 KD2 (human)): 100%
residual activity (ERBB2 (human)): 2.36%
residual activity (CLK2 (human)): 100%
residual activity (ERBB4 (human)): 1.95%
residual activity (VRK1 (human)): 87.8%
residual activity (CHUK (human)): 92.1%
residual activity (TTK (human)): 104%
residual activity (PAK2 (human)): 105%
residual activity (MLTK (human)): 85.8%
residual activity (STK39 (human)): 91.3%
residual activity (PDPK1 (human)): 99.6%
residual activity (JAK3 JH1 JH2 (human)): -0.181%
residual activity (DYRK4 (human)): 98%
residual activity (TAOK2 (human)): 106%
residual activity (ALK (human)): 103%
residual activity (HIPK1 (human)): 108%
residual activity (EPHB2 (human)): 80.9%
residual activity (PRKD2 (human)): 97.6%
residual activity (JAK2 JH1 JH2 (human)): 97.4%
residual activity (PLK2 (human)): 103%
residual activity (MKNK2 (human)): 66%
residual activity (CDK4 CCND1 (human)): 98.6%
residual activity (PRKX (human)): 103%
residual activity (NTRK2 (human)): 100%
residual activity (PAK3 (human)): 99%
residual activity (MARK3 (human)): 107%
residual activity (IRAK1 (human)): 104%
residual activity (TXK (human)): 1.66%
residual activity (CLK3 (human)): 47.1%
residual activity (LRRK2 (human)): 92.3%
residual activity (CSNK1G1 (human)): 95.5%
residual activity (NEK4 (human)): 85.8%
residual activity (MAP3K7 TAB1 (human)): 100%
residual activity (PTK6 (human)): 56.8%
residual activity (CAMK1 (human)): 97.9%
residual activity (MAP3K11 (human)): 99.3%
residual activity (MAPK1 (human)): 101%
residual activity (TBK1 (human)): 105%

CO[C@H]1CC2CC[C@@H](C)[C@@](O)(O2)C(=O)C(=O)N2CCCC[C@H]2C(=O)OC([C@H](C)C[C@@H]2CC[C@@H](O)[C@H](OC)C2)CC(=O)[C@H](C)/C=C(\C)[C@@H](O)[C@@H](OC)C(=O)[C@H](C)C[C@H](C)/C=C/C=C/C=C/1C (stereo partly specified)
residual activity (MAP2K1 (human)): 92.1%
residual activity (DYRK1A (human)): 94.3%
residual activity (SRPK1 (human)): 108%
residual activity (CLK1 (human)): 107%
residual activity (RPS6KA4 KD2 (human)): 91.8%
residual activity (ERBB2 (human)): 97.3%
residual activity (CLK2 (human)): 102%
residual activity (ERBB4 (human)): 88.7%
residual activity (VRK1 (human)): 108%
residual activity (CHUK (human)): 110%
residual activity (TTK (human)): 117%
residual activity (PAK2 (human)): 101%
residual activity (MLTK (human)): 103%
residual activity (STK39 (human)): 97.9%
residual activity (PDPK1 (human)): 92.6%
residual activity (JAK3 JH1 JH2 (human)): 92.4%
residual activity (DYRK4 (human)): 99.8%
residual activity (TAOK2 (human)): 97.6%
residual activity (ALK (human)): 115%
residual activity (HIPK1 (human)): 99.1%
residual activity (EPHB2 (human)): 114%
residual activity (PRKD2 (human)): 99%
residual activity (JAK2 JH1 JH2 (human)): 97.5%
residual activity (PLK2 (human)): 105%
residual activity (MKNK2 (human)): 88.1%
residual activity (CDK4 CCND1 (human)): 115%
residual activity (PRKX (human)): 95.6%
residual activity (NTRK2 (human)): 106%
residual activity (PAK3 (human)): 102%
residual activity (MARK3 (human)): 99%
residual activity (IRAK1 (human)): 118%
residual activity (TXK (human)): 105%
residual activity (CLK3 (human)): 94.4%
residual activity (LRRK2 (human)): 98.7%
residual activity (CSNK1G1 (human)): 96%
residual activity (NEK4 (human)): 97.2%
residual activity (MAP3K7 TAB1 (human)): 95.2%
residual activity (PTK6 (human)): 88%
residual activity (CAMK1 (human)): 111%
residual activity (MAP3K11 (human)): 98.5%
residual activity (MAPK1 (human)): 101%
residual activity (TBK1 (human)): 94.7%
